Tests used:
Assay in all cases: relative viability (nuclei count vs DMSO), 5 days (fraction); higher = more cells survive
[1] = compound: C1COCCN1C2=NC(=NC3=C2OC4=C3C=CC=N4)C5=CC(=CC=C5)NC(=O)C6=CN=C(C=C6)N + CC(=O)Nc1cccc(-n2c(=O)n(C3CC3)c(=O)c3c(Nc4ccc(I)cc4F)n(C)c(=O)c(C)c32)c1 [Trametinib] (partner 0.02 µM)
Procedure, shortened: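 Values are medians from duplicate plates. Each reflects relative viability, defined as the nuclei count of treated wells over that of vehicle wells. Lung cancer cell lines in 1536-well plates were pin-tool dosed one day after seeding with one drug alone or with a fixed anchor-drug dose plus five library-drug doses (not always all listed) in √10 steps, then fixed, stained and imaged at 4× after 5 days.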

[2] = compound: C1COCCN1C2=NC(=NC3=C2OC4=C3C=CC=N4)C5=CC(=CC=C5)NC(=O)C6=CN=C(C=C6)N
Procedure, shortened: (§1)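 Five library-drug doses spaced by √10 were pinned onto vehicle-anchored 1536-well plates of lung cancer cell lines that had been kept overnight at 37 °C. Cells went 5 days without medium change, then were fixed, permeabilised and Hoechst-stained together, imaged at 4× and counted by MetaXpress. Viability is the ratio of treated-well to vehicle-well nuclei, taken as a median over plates. Plates required control CV below 25% and at least one doubling.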

SGI-1776 = compound: CN1CCC(CNc2ccc3ncc(-c4cccc(OC(F)(F)F)c4)n3n2)CC1 [SGI-1776]
Procedure, shortened: as §1

Entinostat = compound: Nc1ccccc1NC(=O)c1ccc(CNC(=O)OCc2cccnc2)cc1 [Entinostat]
Procedure, shortened: as §1

Cell Line	relative viability ([1]; first compound 0.02 µM)	relative viability ([1]; first compound 0.06325 µM)	relative viability ([1]; first compound 0.2 µM)	relative viability ([1]; first compound 0.6325 µM)	relative viability ([1]; first compound 2 µM)	relative viability ([2]; 0.02 µM)	relative viability ([2]; 0.06325 µM)	relative viability ([2]; 0.2 µM)	relative viability ([2]; 0.6325 µM)	relative viability ([2]; 2 µM)	relative viability (SGI-1776; 0.08 µM)	relative viability (SGI-1776; 0.8 µM)	relative viability (SGI-1776; 2.53 µM)	relative viability (SGI-1776; 8 µM)	relative viability (Entinostat; 0.02 µM)	relative viability (Entinostat; 0.06325 µM)	relative viability (Entinostat; 0.2 µM)	relative viability (Entinostat; 0.6325 µM)	relative viability (Entinostat; 2 µM)
NCI-H1993	0.521	0.583	0.571	0.421	0.526	0.981	0.953	0.797	0.946	0.736	0.926	1.04	0.924	0.733	0.986	1.02	0.899	0.805	0.645
NCI-H358	0.132	0.138	0.122	0.127	0.244	0.864	1.09	0.871	0.832	0.625	0.986	0.957	0.897	0.512	1.09	1.17	0.934	0.641	0.255
RERF-LC-KJ	0.808	0.971	0.91	0.893	0.689	1.01	1.05	0.973	0.928	0.743	1.03	1	0.957	0.843	0.952	0.986	0.922	0.631	0.297
NCI-H1915	0.3	0.313	0.298	0.218	0.281	1.02	1.06	1	1.03	0.74	1.03	0.987	0.995	1	1.01	0.997	1.01	0.573	0.392
NCI-H647	0.414	0.483	0.419	0.378	0.234	0.862	1.02	0.905	0.867	0.546	0.988	1.09	0.839	0.544	1.05	1.04	0.897	0.462	0.165
SK-LU-1	0.486	0.502	0.5	0.42	0.411	1.11	1.12	1.03	1.01	0.554	1.23	1.09	1.03	0.839	1.01	1.08	1.02	0.698	0.57
NCI-H441	0.453	0.423	0.29	0.337	0.312	1.1	1.14	1.08	0.888	0.443	0.913	1.12	1.15	0.817	1.01	1.18	0.882	0.35	0.218
COR-L 105	0.421	0.411	0.415	0.403	0.465	0.868	0.717	0.751	0.695	0.591	1.09	1.01	0.949	0.722	0.947	1.14	1.06	0.747	0.371
NCI-H2009	0.264	0.273	0.221	0.245	0.256	0.979	1.09	0.971	0.94	0.846	1.08	0.992	1.05	0.858	1.02	0.974	0.969	0.796	0.644
NCI-H1563						0.938	0.992	0.859	0.786	0.758	1	1.05	0.925	0.756	0.938	0.959	0.887	0.816	0.776
PC-14	0.758	0.932	0.682	0.633	0.229	0.974	1.14	1.03	0.852	0.525	1.09	1.03	0.972	0.491	1.08	1.11	1.06	0.424	0.14
NCI-H1703						0.805	0.975	0.76	0.685	0.505	0.909	0.796	0.588	0.218	1.05	1.3	1.33	1.03	0.646
NCI-H1944	0.378	0.453	0.451	0.382	0.377	0.96	1.01	0.931	0.985	0.918	0.968	1.06	0.981	0.739	0.933	0.851	0.714	0.321	0.261
EBC-1						0.911	1.16	0.936	0.964	0.576	1.04	0.952	0.971	0.67	1.06	1.02	0.865	0.306	0.165
ABC-1						1.09	0.879	0.83	1.1	0.927	1.02	0.916	0.835	0.897	1.01	1.05	1.15	0.808	0.398
A549						1.05	1.1	0.97	0.991	0.471	0.992	1.01	0.959	0.795	1.02	1.03	0.901	0.842	0.508
NCI-H1299						0.991	1.1	1.03	1.02	0.868	1.03	1.01	0.996	0.946	1.03	1	0.994	0.85	0.727
NCI-H1623						1.07	0.943	0.895	0.924	0.853	0.977	0.967	0.951	0.897	1	0.937	0.918	0.625	0.462
Calu-6						1.05	1.04	1.01	0.998	0.685	1.06	1.02	0.976	0.852	1.02	1.02	1.02	0.761	0.544
